Assay results taken from the OligoGym collection.
Several values for one entry are separate records, joined by “and”; a condition that tells them apart may be missing. Equal entries are not always repeated. After the bases stand the sugars from the 5' end (letter, count) and the backbone: PS all phosphorothioate, else s phosphorothioate and o phosphodiester by linkage. Methylation of C is not given here. e = 2'-O-(2-methoxyethyl) (MOE); k = constrained ethyl (cEt); d = 2'-deoxy (DNA)

Each sequence was assayed against MALAT1. Conditions: ASO, A431, 0.005 µM.
Work on ACGGAGAACAACTCGC (sugars k3 d10 k3, PS) yielded a target mRNA inhibition of 1%.
Work on ACTAAGCTACTATATT (sugars k3 d10 k3, PS) yielded a target mRNA inhibition of 39%.
For ACTATATTTAAGGCCT (sugars k3 d10 k3, PS), the target mRNA inhibition was 40%.
Sequence ACTATTTCTCCAGGAC (sugars k3 d10 k3, PS) has a target mRNA inhibition of 20%.
With ACTCAGCCTTTATCAC (sugars k3 d10 k3, PS) the target mRNA inhibition was -5%.
Sequence ACTCCAAGAACTAGCA (sugars k3 d10 k3, PS) has a target mRNA inhibition of 11%.
Work on ACTCGCATCACCGGAA (sugars k3 d10 k3, PS) yielded a target mRNA inhibition of 15%.
Sequence ACTCTAAGATTGTAAG (sugars k3 d10 k3, PS) has a target mRNA inhibition of 25%.
ACTCTTGATCTTGAAT (sugars k3 d10 k3, PS) was tested, and the target mRNA inhibition was 43%.
In the case of ACTGTAAACCTGTGGT (sugars k3 d10 k3, PS), the target mRNA inhibition is reported as -6%.
For ACTTACTGGTTTAAGT (sugars k3 d10 k3, PS), the target mRNA inhibition was -3%.
With ACTTTTAATCATACTC (sugars k3 d10 k3, PS) the target mRNA inhibition was 21%.
With AGAAACCTACAACACC (sugars k3 d10 k3, PS) the target mRNA inhibition was -6%.
With AGAACTAGCACCTGCA (sugars k3 d10 k3, PS) the target mRNA inhibition was 15%.
Sequence AGAACTAGTGGTTCCC (sugars k3 d10 k3, PS) has a target mRNA inhibition of -3%.
Work on AGAACTGCTCTAGTTT (sugars k3 d10 k3, PS) yielded a target mRNA inhibition of -6%.
Work on AGACGGAGAACAACTC (sugars k3 d10 k3, PS) yielded a target mRNA inhibition of -14%.
For AGAGTAACTACCAGCC (sugars k3 d10 k3, PS), the target mRNA inhibition was 55% and 76%.
AGATTCCGTAACTTTA (sugars k3 d10 k3, PS) was tested, and the target mRNA inhibition was 78% and 92%.
For AGATTGTAAGCATTTA (sugars k3 d10 k3, PS), the target mRNA inhibition was 42%.
AGCACATCATGCTATT (sugars k3 d10 k3, PS) showed a target mRNA inhibition of 26%.
AGCACTTATCCCTAAC (sugars k3 d10 k3, PS) gave a target mRNA inhibition of 40%.
Work on AGCAGAAGCCCCTGCG (sugars k3 d10 k3, PS) yielded a target mRNA inhibition of -1%.
AGCAGCGGGATCAGAA (sugars k3 d10 k3, PS) gave a target mRNA inhibition of 19%.
In the case of AGCCAAGCCGCCTGCT (sugars k3 d10 k3, PS), the target mRNA inhibition is reported as 20%.
With AGCCTTCAGAGATTCA (sugars k3 d10 k3, PS) the target mRNA inhibition was 75% and 91%.
AGCGGTACACTCCTTC (sugars k3 d10 k3, PS) was tested, and the target mRNA inhibition was 50% and 43%.
In the case of AGCTACAACAAGTAAG (sugars k3 d10 k3, PS), the target mRNA inhibition is reported as 12%.
With AGCTACTTAGCTGTGG (sugars k3 d10 k3, PS) the target mRNA inhibition was 34%.
AGCTCCTGACAAATTA (sugars k3 d10 k3, PS) showed a target mRNA inhibition of 15%.
For AGCTGAACTATCACAA (sugars k3 d10 k3, PS), the target mRNA inhibition was 5%.
For AGCTGAGGCTTCCCGG (sugars k3 d10 k3, PS), the target mRNA inhibition was 12%.
In the case of AGCTGTTTAAGTCACC (sugars k3 d10 k3, PS), the target mRNA inhibition is reported as 62% and 57%.
AGCTTGACAAGCAATT (sugars k3 d10 k3, PS) was tested, and the target mRNA inhibition was 16%.
AGGACTTGGCAGTCTG (sugars k3 d10 k3, PS) showed a target mRNA inhibition of 30%.
AGGATCCAAGCTACTG (sugars k3 d10 k3, PS) gave a target mRNA inhibition of -13%.
AGGATGAAATGCCTCT (sugars k3 d10 k3, PS) was tested, and the target mRNA inhibition was 22%.
For “AGGCAAACGAAACATTGGCA (sugars e5 d10 e5, PS)”, the target mRNA inhibition was 3% and 12%.
With AGGCAAATCGCCATGG (sugars k3 d10 k3, PS) the target mRNA inhibition was 5%.
AGGCAGTTATATTAGG (sugars k3 d10 k3, PS) gave a target mRNA inhibition of 26%.
AGGGACAGTAGGTATA (sugars k3 d10 k3, PS) was tested, and the target mRNA inhibition was 16%.
Work on AGGTATGACATATAAT (sugars k3 d10 k3, PS) yielded a target mRNA inhibition of 35%.
AGTAACCTATTGACTA (sugars k3 d10 k3, PS) was tested, and the target mRNA inhibition was -16%.
With AGTAAGAATCTCAGGG (sugars k3 d10 k3, PS) the target mRNA inhibition was 45%.
AGTAAGCCCCACCCCC (sugars k3 d10 k3, PS) gave a target mRNA inhibition of 29%.
Sequence AGTAGACCAACTAAGC (sugars k3 d10 k3, PS) has a target mRNA inhibition of 25%.
With AGTAGGCCAGACCAAC (sugars k3 d10 k3, PS) the target mRNA inhibition was 4%.
AGTAGGTATAGTTTAC (sugars k3 d10 k3, PS) gave a target mRNA inhibition of 10%.
Work on AGTATTACTCTAATCA (sugars k3 d10 k3, PS) yielded a target mRNA inhibition of 23%.
With AGTATTATAATAGAGC (sugars k3 d10 k3, PS) the target mRNA inhibition was 20%.
Work on AGTCCTAGCTTCATCA (sugars k3 d10 k3, PS) yielded a target mRNA inhibition of 27%.
AGTCTACAAGTTACAT (sugars k3 d10 k3, PS) showed a target mRNA inhibition of 3%.
For AGTGTACTATCCCATC (sugars k3 d10 k3, PS), the target mRNA inhibition was 78% and 91%.
Sequence AGTGTTTACACTGCTC (sugars k3 d10 k3, PS) has a target mRNA inhibition of 22%.
In the case of AGTTACTTGCCAACTT (sugars k3 d10 k3, PS), the target mRNA inhibition is reported as 7%.
AGTTTGTCAATAGTAC (sugars k3 d10 k3, PS) was tested, and the target mRNA inhibition was 42%.
With ATAACAAGTTTAAGGG (sugars k3 d10 k3, PS) the target mRNA inhibition was 41%.
